The supplement of paper PMC5908809

Experiments:
IMC-1 (IL-2 20 ng/mL) [1] = assay: percent inhibition of viability; higher = more inhibition; conditions: 72 h
SNK-6 (IL-2 2.5 ng/mL) [2] = assay: as above; conditions: 72 h
YT (IL-2 2.5 ng/mL) [3] = assay: as above; conditions: 72 h
KHYG-1 (IL-2 2.5 ng/mL) [4] = assay: as above; conditions: 72 h
NK-YS (IL-2 2.5 ng/mL) [5] = assay: as above; conditions: 72 h
[6] = test system: normal primary NK cells, pool 2 (3 donors) (IL-2 2.5 ng/mL); assay: as above; conditions: 72 h
KAI3 (IL-2 2.5 ng/mL) [7] = assay: as above; conditions: 72 h
[8] = test system: normal primary NK cells, pool 1 (3 donors), resting (IL-2 0 ng/mL); assay: as above; conditions: 72 h
NK-92 (IL-2 2.5 ng/mL) [9] = assay: as above; conditions: 72 h
NKL (IL-2 2.5 ng/mL) [10] = assay: as above; conditions: 72 h
[11] = test system: normal primary NK cells, pool 1 (3 donors) (IL-2 2.5 ng/mL); assay: as above; conditions: 72 h
DERL-7 (IL-2 2.5 ng/mL) [12] = assay: as above; conditions: 72 h
[13] = test system: normal primary NK cells, pool 3 (3 donors) (IL-2 2.5 ng/mL); assay: as above; conditions: 72 h
[14] = test system: normal NK cells expanded with K562-aAPC; assay: drug sensitivity score (DSS) (DSS units); higher = more sensitive; extreme values may be limits of the assay; conditions: 72 h; IL-2 2.5 ng/mL
Description: (§1)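 Drug sensitivity and resistance testing on K562-aAPC-expanded normal NK cells: 5 concentrations (10-fold steps over a 10,000-fold range), 72 h at 37 °C, viability by CellTiter-Glo normalised to DMSO and benzethonium chloride controls; DSS from the fitted curve.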

[15] = test system: normal NK cells expanded with K562-aAPC; assay: percent inhibition of viability; higher = more inhibition; conditions: 72 h, IL-2 2.5 ng/mL
Description: as §1

IMC-1 (IL-2 20 ng/mL) [16] = assay: drug sensitivity score (DSS) (DSS units); higher = more sensitive; extreme values may be limits of the assay; conditions: 72 h
SNK-6 (IL-2 2.5 ng/mL) [17] = assay: as above; conditions: 72 h
YT (IL-2 2.5 ng/mL) [18] = assay: as above; conditions: 72 h
KHYG-1 (IL-2 2.5 ng/mL) [19] = assay: as above; conditions: 72 h
NK-YS (IL-2 2.5 ng/mL) [20] = assay: as above; conditions: 72 h
[21] = test system: normal primary NK cells, pool 2 (3 donors) (IL-2 2.5 ng/mL); assay: as above; conditions: 72 h
KAI3 (IL-2 2.5 ng/mL) [22] = assay: as above; conditions: 72 h
[23] = test system: normal primary NK cells, pool 1 (3 donors), resting (IL-2 0 ng/mL); assay: as above; conditions: 72 h
NK-92 (IL-2 2.5 ng/mL) [24] = assay: as above; conditions: 72 h
NKL (IL-2 2.5 ng/mL) [25] = assay: as above; conditions: 72 h
[26] = test system: normal primary NK cells, pool 1 (3 donors) (IL-2 2.5 ng/mL); assay: as above; conditions: 72 h
DERL-7 (IL-2 2.5 ng/mL) [27] = assay: as above; conditions: 72 h
[28] = test system: normal primary NK cells, pool 3 (3 donors) (IL-2 2.5 ng/mL); assay: as above; conditions: 72 h

C=C1C[C@@H]2[C@H](CC[C@]3(C)C(=O)CC[C@@H]23)[C@@]2(C)C=CC(=O)C=C12 [Exemestane] (max concentration tested 10000 nM)
percent inhibition of viability [%]
Conditions | 1 nM | 10 nM | 100 nM | 1000 nM | 10000 nM
DERL-7 (IL-2 2.5 ng/mL) [12] | -0.04 | 2.07 | -0.5 | 8.21 | 26.2
IMC-1 (IL-2 20 ng/mL) [1] | -4.22 | 2.93 | 0.3 | 7.31 | 12.9
KAI3 (IL-2 2.5 ng/mL) [7] | 0.1 | 9.66 | 6.63 | 5.02 | 42
KHYG-1 (IL-2 2.5 ng/mL) [4] | -6.37 | 13.7 | -2.18 | 12.3 | 29.8
NK-92 (IL-2 2.5 ng/mL) [9] | -2.32 | 9.27 | 5.72 | 8.66 | 44.8
NK-YS (IL-2 2.5 ng/mL) [5] | -2.57 | 3.99 | 3.16 | 2.81 | 18.9
NKL (IL-2 2.5 ng/mL) [10] | -3.13 | 9.66 | -3.12 | 3.19 | 14.4
SNK-6 (IL-2 2.5 ng/mL) [2] | -1.73 | 3.81 | 3.19 | 27.1 | 40.9
YT (IL-2 2.5 ng/mL) [3] | -3.57 | 11.7 | -3.54 | 1.89 | 7.92
[6] | -7.91 | -3.9 | 6.14 | 2.28 | 47.6
[8] | 3.47 | -11.3 | -6.56 | -1.56 | 75.8
[11] | -3.16 | -4.6 | 2.49 | -8.32 | 47.6
[13] | -5.22 | -9.04 | 7.22 | 1.19 | 30.5
[15] | -3.29 | -0.41 | 3.42 | 12.7 | 35.6

Conditions | drug sensitivity score
DERL-7 (IL-2 2.5 ng/mL) [27] | 2.16
IMC-1 (IL-2 20 ng/mL) [16] | 0.35
KAI3 (IL-2 2.5 ng/mL) [22] | 2.96
KHYG-1 (IL-2 2.5 ng/mL) [19] | 2.88
NK-92 (IL-2 2.5 ng/mL) [24] | 3.74
NK-YS (IL-2 2.5 ng/mL) [20] | 0.88
NKL (IL-2 2.5 ng/mL) [25] | 0.48
SNK-6 (IL-2 2.5 ng/mL) [17] | 5.29
YT (IL-2 2.5 ng/mL) [18] | 0
[14] | 3.07
[21] | 2.8
[23] | 4.06
[26] | 1.99
[28] | 1.49

CN(C)CCOc1ccc(/C(=C(/CCCl)c2ccccc2)c2ccccc2)cc1 [Toremifene] (max concentration tested 10000 nM)
percent inhibition of viability [%]
Conditions | 1 nM | 10 nM | 100 nM | 1000 nM | 10000 nM
DERL-7 (IL-2 2.5 ng/mL) [12] | 1.82 | 1.64 | 5.42 | 24.2 | 53.5
IMC-1 (IL-2 20 ng/mL) [1] | -0.16 | 2.16 | -3.63 | 1.2 | 10.6
KAI3 (IL-2 2.5 ng/mL) [7] | 8.55 | 1.95 | 5.19 | 8.64 | 60.7
KHYG-1 (IL-2 2.5 ng/mL) [4] | -7.33 | 4.52 | -9.46 | 6.72 | 42
NK-92 (IL-2 2.5 ng/mL) [9] | -4.85 | -1.12 | 2.18 | 6.43 | 54.2
NK-YS (IL-2 2.5 ng/mL) [5] | 1.32 | -4.28 | -2.7 | -0.4 | 25.6
NKL (IL-2 2.5 ng/mL) [10] | 7.08 | 8.77 | -8.23 | 8.2 | 32.7
SNK-6 (IL-2 2.5 ng/mL) [2] | 13 | 30.5 | -2.4 | 28.2 | 29
YT (IL-2 2.5 ng/mL) [3] | -5.23 | 2.7 | -3.67 | 5.54 | 33
[6] | -4.96 | -0.07 | -1.79 | 3.55 | 49
[8] | -10.2 | -1.02 | 4.14 | 7.87 | 82.2
[11] | -5.3 | -17.6 | -3 | -8.46 | 64.3
[13] | -2.58 | -5.78 | 0.52 | 5.83 | 23.4
[15] | -7.54 | -7.98 | -6.66 | -5.37 | 22.4

Conditions | drug sensitivity score
DERL-7 (IL-2 2.5 ng/mL) [27] | 5.52
IMC-1 (IL-2 20 ng/mL) [16] | 0.01
KAI3 (IL-2 2.5 ng/mL) [22] | 4.76
KHYG-1 (IL-2 2.5 ng/mL) [19] | 3.24
NK-92 (IL-2 2.5 ng/mL) [24] | 3.98
NK-YS (IL-2 2.5 ng/mL) [20] | 0.96
NKL (IL-2 2.5 ng/mL) [25] | 2.74
SNK-6 (IL-2 2.5 ng/mL) [17] | 6.85
YT (IL-2 2.5 ng/mL) [18] | 2.42
[14] | 0.54
[21] | 3.11
[23] | 5.83
[26] | 2.96
[28] | 1.64

N#Cc1ccc(C(c2ccc(C#N)cc2)n2cncn2)cc1 [Letrozole] (max concentration tested 10000 nM)
percent inhibition of viability [%]
Conditions | 1 nM | 10 nM | 100 nM | 1000 nM | 10000 nM
DERL-7 (IL-2 2.5 ng/mL) [12] | 3.92 | -4.41 | 0.76 | -20.5 | -8.07
IMC-1 (IL-2 20 ng/mL) [1] | -2.09 | -2.27 | -1.74 | 2.28 | 8.91
KAI3 (IL-2 2.5 ng/mL) [7] | -6.48 | -8.29 | 2.19 | 2.56 | 14.1
KHYG-1 (IL-2 2.5 ng/mL) [4] | -7.78 | -5.69 | -3.04 | -1.07 | 5.03
NK-92 (IL-2 2.5 ng/mL) [9] | -10.2 | -8 | -6.61 | -5.03 | 17.5
NK-YS (IL-2 2.5 ng/mL) [5] | -8.7 | -6.85 | -4.19 | 1.26 | 9.67
NKL (IL-2 2.5 ng/mL) [10] | -6.26 | -9.07 | 3.52 | 11.2 | 10.6
SNK-6 (IL-2 2.5 ng/mL) [2] | 14.2 | -31.4 | -25.2 | -23.6 | -28.2
YT (IL-2 2.5 ng/mL) [3] | 0.65 | -5.8 | 1.61 | -1.29 | 30.5
[6] | -3.07 | -5.44 | 6.01 | 0.12 | -0.44
[8] | -3.46 | 12.2 | 4.99 | 1.86 | 7.77
[11] | -10.5 | 0.24 | 0.58 | 3.66 | 5.55
[13] | 2.09 | -1.11 | 10.7 | -4.55 | -7.8
[15] | -3.92 | -7.21 | -4.76 | 2.21 | 7.69

Conditions | drug sensitivity score
DERL-7 (IL-2 2.5 ng/mL) [27] | 0
IMC-1 (IL-2 20 ng/mL) [16] | 0
KAI3 (IL-2 2.5 ng/mL) [22] | 0.38
KHYG-1 (IL-2 2.5 ng/mL) [19] | 0
NK-92 (IL-2 2.5 ng/mL) [24] | 0.25
NK-YS (IL-2 2.5 ng/mL) [20] | 0
NKL (IL-2 2.5 ng/mL) [25] | 0.42
SNK-6 (IL-2 2.5 ng/mL) [17] | 0
YT (IL-2 2.5 ng/mL) [18] | 1.23
[14] | 0
[21] | 0
[23] | 0
[26] | 0
[28] | 0
